Results published in paper PMC6095690, “Coalescing beneficial host and deleterious antiparasitic actions as an antischistosomal strategy” (eLife, 2018).

How the values were obtained:
liver signaling pathways = assay: Ingenuity Pathway Analysis of transcripts differentially expressed in drug treated livers relative to control infections; assay type: in vivo, mouse
[1] = system: immature S. mansoni (infection in mice); assay: curative efficacy against immature infection in mice (dosing weeks 3-4 post infection); details: dosing 3–4 weeks post infection, worm burden at 7 weeks; ERG 60 mg/kg, PZQ 50 mg/kg
[2] = system: S. mansoni (mature infection in Swiss Webster mice); assay: curative efficacy against mature infection in mice (survival, worm burden, egg counts, organ weights); details: for reduction in intestinal egg burden: ergotamine 60 mg/kg twice daily or PZQ 50 mg/kg, 42–49 days p.i.; for effect on hepatosplenomegaly: one week treatment starting at 42 days p.i.
Sm.5HTRL [3] = target: T1, Sm.5HTRL (Schistosoma mansoni, UniProt A0A173FEI8); assay: cell-based; details: HEK293
T1 sequence (A0A173FEI8 1-547): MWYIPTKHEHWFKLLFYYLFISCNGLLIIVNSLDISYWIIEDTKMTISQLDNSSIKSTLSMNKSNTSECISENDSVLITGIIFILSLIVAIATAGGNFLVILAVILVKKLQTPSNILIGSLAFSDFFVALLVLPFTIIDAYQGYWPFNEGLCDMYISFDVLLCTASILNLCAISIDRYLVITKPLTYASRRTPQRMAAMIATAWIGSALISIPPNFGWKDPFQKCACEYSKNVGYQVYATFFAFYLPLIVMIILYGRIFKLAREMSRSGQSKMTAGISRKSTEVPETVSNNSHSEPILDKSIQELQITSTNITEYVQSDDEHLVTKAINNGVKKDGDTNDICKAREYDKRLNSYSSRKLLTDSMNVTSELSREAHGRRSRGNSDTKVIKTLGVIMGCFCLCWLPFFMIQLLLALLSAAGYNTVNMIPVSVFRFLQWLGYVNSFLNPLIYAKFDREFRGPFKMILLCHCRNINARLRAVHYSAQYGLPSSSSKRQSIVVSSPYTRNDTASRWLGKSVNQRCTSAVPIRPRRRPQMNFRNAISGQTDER

Sm.5HTRL [4] = target: T1, Sm.5HTRL
Sh.5HTR = Sh.5HTR (Schistosoma haematobium, UniProt A0A922S615); assay type: cell-based; details: HEK293; maximal cAMP response relative to 5-HT
[5] = system: adult S. mansoni male and female pairs; assay: egg laying assay of worm pairs cultured ex vivo; details: 1 µM
[6] = system: liver of S. mansoni infected mice; assay: liver histology and immunohistochemistry of infected drug treated mice; details: ergotamine 60 mg/kg
immature S. mansoni = assay: movement of immature worms harvested 4 weeks post infection, ex vivo; parameters: species or system Schistosoma mansoni; details: male worms 4 weeks post infection
Text: Figure 6. […] Figure 6—figure supplement 1. […] Scale = 50 µm. [drawing 7]

Sj.5HTR = Sj.5HTR (Schistosoma japonicum, UniProt A0A346LTY2); assay: cell-based; details: HEK293
Chain of Sj.5HTR (A0A346LTY2 entry or part of it): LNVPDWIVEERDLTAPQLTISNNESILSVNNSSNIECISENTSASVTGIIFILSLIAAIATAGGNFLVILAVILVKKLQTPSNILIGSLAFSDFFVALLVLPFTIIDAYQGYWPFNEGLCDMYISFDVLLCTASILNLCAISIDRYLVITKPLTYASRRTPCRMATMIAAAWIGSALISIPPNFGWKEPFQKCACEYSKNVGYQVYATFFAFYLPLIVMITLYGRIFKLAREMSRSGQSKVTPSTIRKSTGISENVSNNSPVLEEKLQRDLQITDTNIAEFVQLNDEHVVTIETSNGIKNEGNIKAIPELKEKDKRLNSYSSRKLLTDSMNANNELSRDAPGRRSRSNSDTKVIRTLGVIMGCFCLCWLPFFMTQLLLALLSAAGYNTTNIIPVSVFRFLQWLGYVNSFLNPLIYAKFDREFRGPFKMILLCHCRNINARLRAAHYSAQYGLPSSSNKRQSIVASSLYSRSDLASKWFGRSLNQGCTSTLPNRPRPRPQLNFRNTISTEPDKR

[7] = system: adult S. mansoni parasites; assay: adult worm movement assay ex vivo; parameters: species or system Schistosoma mansoni; details: Schistosoma mansoni; ex vivo, ± 95% confidence interval; read-out: EC50 for stimulation of adult schistosome movement
[8] = system: S. mansoni (mature infection in Swiss Webster mice); assay: hepatic shift assay in infected mice; details: intraperitoneal, sacrificed three hours later; dose not given
[9] = system: forskolin evoked cAMP production in HEK293 cells lacking Sm.5HTRL; assay: counter-screen of antagonist hits: forskolin evoked cAMP production in parental reporter line; assay type: cell-based
human 5-HT2B receptor = system: human 5-HT2B receptor; parameters: method as in Chan et al., 2017; details: contracts host mesenteric vessels; ref Chan et al., 2017; cited from earlier work

O=C(C1CCCCC1)N1CC(=O)N2CCc3ccccc3C2C1 (stereo not shown) [PZQ, praziquantel]
effect on gene products associated with HSC activation (liver signaling pathways): little to no effect | effect on immature infection [1]: lack of effect | lethality through 15 weeks ([2]; PZQ 50 mg/kg for one week from 42 days p.i.): no observed lethality | reduction in intestinal egg burden [2]: 99.9 ± 0.1% | effect on hepatosplenomegaly [2]: did not prevent spleen and liver enlargement

CN1C[C@H](C(=O)N[C@]2(C)O[C@@]3(O)[C@@H]4CCCN4C(=O)[C@H](Cc4ccccc4)N3C2=O)C=C2c3cccc4[nH]cc(c34)C[C@H]21 [ergotamine, Ergotamine]
Emax (Sm.5HTRL [3]): 95 ± 4% | type of activity at schistosome 5-HTRs (Sm.5HTRL [4]): full agonists | Emax (Sh.5HTR): 96 ± 5% | morphology of eggs laid by treated worms [5]: often small and deformed | effect on gene products associated with HSC activation (liver signaling pathways): down-regulated gene products associated with HSC activation | effect on immature infection [1]: did not resolve infections | granuloma formation and fibrosis in liver sections [6]: decreased granuloma formation and fibrosis | hepatic microvesicular steatosis / microvascular damage ([6]; H and E staining): not observed | worm burden ([2]; 60 mg/kg twice daily 42–49 days p.i., control 28 ± 8): 9 ± 6 worm pairs per mouse | reduction of worm burden ([2]; 60 mg/kg twice daily 42–49 days p.i., p<0.002): ~ 65% | reduction of infection-promoted increase in spleen mass ([2]; 60 mg/kg twice daily 42–49 days p.i., relative to vehicle treated controls): 55.8 ± 14.0% | reduction in intestinal egg burden [2]: 96.3 ± 1.2% | effect on hepatosplenomegaly [2]: prevented hepatosplenomegaly | effect on movement of juvenile worms (immature S. mansoni): stimulated movement of juvenile worms | Emax (Sj.5HTR): 114 ± 3% | EC50 [7]: 97.8 ± 31.6 nM | percentage of worms in the liver [8]: 75.1 ± 16.9%

C[C@@H]1CC[C@@]2(OC1)O[C@H]1[C@@H](O)[C@H]3[C@@H]4CC[C@H]5C[C@@H](O[C@@H]6O[C@H](CO)[C@H](O[C@@H]7O[C@H](CO)C(O)[C@H](O[C@@H]8OC[C@@H](O)[C@H](O)[C@H]8O)[C@H]7O[C@@H]7O[C@H](CO)[C@H](O)[C@H](O[C@@H]8O[C@H](CO)[C@@H](O)[C@H](O)[C@H]8O)[C@H]7O)[C@H](O)[C@H]6O)[C@H](O)C[C@]5(C)[C@H]4CC[C@]3(C)[C@H]1[C@@H]2C (stereo partly shown) [ST069321]
(+) Sm.5HTR 5-HT response (% of DMSO) (Sm.5HTRL [4]): 0.1068 % of DMSO | (-) Sm.5HTR Forskolin response (% of DMSO) [9]: 0.15 % of DMSO

O=C(C1CCCCC1)N1CC(=O)N2CCc3ccccc3[C@@H]2C1 [R-PZQ]
type of activity at human 5-HT2B receptor (human 5-HT2B receptor): partial agonist
